Test results taken from patent US6681132B1, “Sodium magnetic reasonance imaging used in diagnosing tumors and assessing response to treatment” (The Trustees of Columbia University in the City of New York, priority 1999, dated 2004).

Key:
PC3 tumors = experiment: Inversion recovery (IR) weighted sodium MRI of PC3 tumors after chemotherapy; assay type: in vivo, nude mice; settings: for increase in maximum IR sodium image intensity: PC3 tumors, 24 hrs vs predrug, 25 msec inversion time, normalized to brighter phantom, taxotere 1.5 mg, VP-16 0.2-0.4 mg, femoral vein
Experimental: (§1) (A) Chemotherapy and inversion recovery MR imaging—Following acquisition of control images, antineoplastics were administered. All IR images and SQ images were normalized to the brightest phantom within each slice (i.e., 40% Ficoll for IR and 30% Ficoll for SQ respectively). All tumors were analyzed by examining changes in intensity at the brightest—usually central area—of the tumor image. It was clearly identifiable both from manual examination with line profiles or from the pixel density histogram derived from a region of interest analysis. […] Results from PC3 tumors (solid lines, filled circles) and DU145 tumors (dashed lines, open circles) are plotted together. In two experiments with control saline injections (not shown in graphs), there were small decreases of 5.5% (NS) at 24 hours and 3.5% (NS) at 48 hours.
In vivo detection of antineoplastic effects using weighted sodium MR images—Examination of the effect of chemotherapy on the IR sodium image in a series of PC3 and DU145 tumors was studied. Control and post-therapy images were acquired in sixteen mice, and tumors in two additional mice had images reacquired at both 24 and 48 hrs following control saline injection. […] Results are plotted as change in maximum image intensity for each drug separately (top panel, FIG. 4, taxotere; bottom panel, FIG. 4, VP-16 etoposide). Elevation is significant for each drug taken separately for the more numerous PC3 tumor experiments (taxotere, 32% increase at p<0.001, n=5; VP-16, 38% increase at p<0.0005, n=7); and is also significant for all PC3 experiments measured at 48 hrs (28%, p<0.05, n=11).
All imaging experiments were performed on a high field (4.23 Tesla) whole body MRI system. A small quadrature birdcage radiofrequency coil (50 mm ID, Morris Inc.) and a high strength gradient insert coil (30 mT/m, Bruker model G-33) were employed. Acquisition parameters were TR=100 msec, TE=5.6 msec, FOV=40 mm, slice thickness=2.5 mm, flip angle=90° , inversion time=25 msec, acquisition matrix was 64×64×8. The two phantoms on all animal images shown were identical (P1-30% Ficoll in 200 mM NaCl; P2-40% Ficoll in 200 mM NaCl). All animal images were normalized to the brighter phantom (e.g. P1 on the SQ, P2 on the IR). Animals were positioned in a specially designed animal holder, allowing for reproducible tumor placement.
Two adjacent slices from a 3 dimensional gradient echo image set of a PC3 tumor are shown before (FIGS. 5, A&B) and 48 hrs after (FIGS. 5, C&D) injection of 1.5 mg taxotere to the nude mouse. […] The second example illustrates the contribution of this technique at its limit of resolution.
Inversion recovery images (25 msec inversion time) were acquired for 16 nude mouse tumors following chemotherapy. […]

PC3 and DU145 tumors = experiment: IR sodium MRI, PC3 and DU145 tumors taken as a whole; assay type: in vivo, nude mice; settings: PC3 and DU145 tumors plotted together
Experimental: as §1, with “In two experiments with control saline injections (not shown in graphs), there were small decreases of 5.5% (NS) at 24 hours and 3.5% (NS) at 48 hours.” left out
In vivo detection of antineoplastic effects using weighted sodium MR images—Examination of the effect of chemotherapy on the IR sodium image in a series of PC3 and DU145 tumors was studied. […] Elevation is significant for each drug taken separately for the more numerous PC3 tumor experiments (taxotere, 32% increase at p<0.001, n=5; VP-16, 38% increase at p<0.0005, n=7); and is also significant for all PC3 experiments measured at 48 hrs (28%, p<0.05, n=11). […]
The effect of chemotherapy on the IR sodium image intensity in PC3 and DU145 tumors was consistent with the culture results. […] These values were calculated from human doses using standard equations which convert weight to surface area for small mammals. […]

PC3 cell = experiment: APO-BRDU endlabelling of DNA fragmentation, flow cytometry, PC3; assay type: cell-based, human
Experimental: At the end of the treatment period, cells are trypsinized, resuspended in media, resuspended in PBS, resuspended in iced cold methanol free formaldehyde (1% in PBS) for 15 min, resuspended in 70% ethanol and stored at −20° C. until all samples from a given experiment are ready to run (19, 23). Using a very powerful endlabelling technique (APO-BRDU, Phoenix Flow Systems, California) which gives a dynamic range of fluorescence intensities of up to 1000 fold comparing control cells to cells with advanced DNA fragmentation. Results have been confirmed using positive and negative controls provided by Phoenix Flow Systems, camptothecin treated PC3 cells, and a SNAP treated myocyte line.
Fixed cells are labeled following kit instructions (two washes with kit buffer, overnight endlabelling, two resuspensions in a rinse buffer, exposure to fluorescent antibody and treatment with propidium iodide and RNAase. Flow cytometry is performed on a Becton/Dickenson FACStar II. Individual fluorescence intensity values for 10,000 cells are obtained for each sample.
To specifically assay DNA fragmentation, a downstream response to apoptosis, uses of a terminal deoxynucleotidyl transferase labeling approach whereby fluorescent moieties are enzymatically attached to all DNA fragment ends. (FIG. 3a) The technique which was used, has a dynamic range of approximately ×1000 (FIG. 2). […]

| Structure (SMILES) | spatial change of tumor on inversion recovery image (PC3 tumors; PC3 tumor, 48 hrs after injection of 1.5 mg) | increase in maximum IR sodium image intensity (PC3 tumors) [%] | IR image intensity at 24 hrs versus control (graphs) (PC3 and DU145 tumors) | time course of DNA fragmentation (PC3 cell) | detectability of tumor on IR image (PC3 tumors; elongated PC3 tumor, 24 hr after injection of 0.3 mg) |
| --- | --- | --- | --- | --- | --- |
| CC(=O)O[C@@]12CO[C@@H]1C[C@H](O)[C@@]1(C)C(=O)[C@H](O)C3=C(C)[C@@H](OC(=O)[C@H](O)[C@@H](NC(=O)OC(C)(C)C)c4ccccc4)C[C@@](O)([C@@H](OC(=O)c4ccccc4)[C@H]21)C3(C)C [taxotere] | clear spatial broadening of the tumor | 32 | increased image intensity | continues to develop beyond the 24-hr sample point | – |
| COc1cc([C@@H]2c3cc4c(cc3[C@@H](O[C@@H]3O[C@@H]5CO[C@@H](C)O[C@H]5[C@H](O)[C@H]3O)[C@H]3COC(=O)[C@H]23)OCO4)cc(OC)c1O [VP-16, etoposide] | – | 38 | increased image intensity | continues to develop beyond the 24-hr sample point | readily apparent following chemotherapy |
